The source of these data is patent publication US9198906B2, “Ketoconazole enantiomer in humans” (Cortendo AB (publ), priority 2006, dated 2015).

The term clearance denotes a measure of how efficiently the substance is removed, as volume per time. Low values mean inefficient removal, high ones efficient removal.

The test system of data set [1] is patients with type 2 diabetes mellitus. Kind of data set: Phase 2a trial, HbA1c (glycemic control). It counts as in vivo, human. The method, then: (§1) Five (5) dose groups were studied.
(§2) The first dose of the study drug was given on Day 1 at 2200 h. Activity markers measured on Day 1 prior to administration of the drug (“Visit 1”). The last dose of study drug was given on Day 14 at 2200 h and activity markers measured on Day 15 (“Visit 3”). Measurements of safety markers were taken on Visits 1 and 3, as well as Visit 2 (Day 8) and Visit 4 (Day 28).
This test measure levels of glycated hemoglobin and reflects the average blood glucose level for a subject over the preceding 3 months (approximately). Elevated levels are common in diabetics. Lowering the hemoglobin A1c number can delay or prevent the development of serious eye, kidney, and nerve disease in individuals with diabetes.

The test system is the same in data set [2]. Kind of data set: Phase 2a trial, liver function tests (AST/ALT/AP). To be noted: Subject 04-016, KTZ 400 mg. The method, then:
as §2

For data set [3] the test system is unchanged. Kind of data set: Phase 2a trial, C-reactive protein (marker of inflammation). It counts as in vivo, human. As for the experimental part: as §1, §2
Data set [4] shares this test system. Kind of data set: Phase 2a trial, total cholesterol. It counts as in vivo, human. As for the experimental part: as §1, §2
The test system of data set [5] is healthy volunteers. To be noted: published reports, e.g. Morganroth et al. 1997; cited from earlier work.
Data set [6] has as its system patients with type 2 diabetes mellitus. In words: Phase 2a trial, LDL cholesterol. It counts as in vivo, human. The method, then: as §1, §2
Data set [7] has the same test system. Kind of data set: Phase 2a trial, continuous blood pressure monitoring. To be noted: Visits 1 and 3, 14 daily doses. It counts as in vivo, human. As for the experimental part:
as §1
Continuous blood pressure monitoring was performed during Visits 1 and 3.

For data set [8] the test system is unchanged. Kind of data set: Phase 2a trial, fructosamine (glycemic control). It counts as in vivo, human. As for the experimental part: as §1, §2
Fructosamine levels were measured at baseline and after two weeks of therapy (see Table 4 and FIGS. 1 and 2). […] Fructosamine levels reflect blood glucose levels over the preceding 2-3 weeks.

For data set [9] the following is noted: plasma; Beagle dogs, racemic ketoconazole 30 mg/dog intravenous bolus.
Description: The pharmacokinetics of each of the ketoconazole enantiomers was studied following intravenous administration of racemic ketoconazole. Racemic ketoconazolewas dissolved in ethanol to 60 mg/ml. Each of three Beagle dogs was administered 0.5 ml bolus (30 mg/dog) intravenously.
Blood was collected from each dog prior to dosing (“0 min”) and at 2, 5, 10, 15, 30 min, and 1, 2, 4, 6, 8, and 24 hrs post-dosing. At each timepoint, blood (0.3 mL/sample) was collected and placed into labeled Microtainer® tubes with heparin as the anti-coagulant. The heparinized blood was centrifuged, and the supernatant pipetted off into another set of labeled Eppendorf® tubes. The derived plasma samples were analyzed for each of the two ketoconazole enantiomers (2S,4R and 2R,4S) and pharmacokinetic parameters determined for each of the enantiomers.
The mark [10] stands for this setting: 400 mg po QD, 14 daily doses, Visit 3 (Day 15).
Setting [11] is: 400 mg po QD group, Visit 1 (baseline, before first dose).

Molecules are shown by their SMILES.

As to `CC(=O)N1CCN(c2ccc(OCC3COC(Cn4ccnc4)(c4ccc(Cl)cc4Cl)O3)cc2)CC1` (racemic) [KTZ, 1-acetyl-4-[4-[[2-(2,4-dichlorophenyl)-2-[(1H-imidazol-1-yl)-methyl]-1,3-dioxolan-4-yl]methoxy]phenyl]piperazine, reference compound], the “Visit 1 HbA1c mean” value in data set [1] (400 mg po QD group, Visit 1 (Day 1, before first dose, baseline)) was determined as 8.05%. Moreover, in data set [1] (400 mg po QD, 14 daily doses), the “HbA1c Change vs Baseline mean” value is −0.37%. The “Visit 3 HbA1c mean” value in data set [1] (setting [10]) was found to be 7.68%. In [2] (Screening Visit), this compound had an ALT of 28 u/L, an AP of 110 u/L and an AST of 33 u/L. In addition, in data set [2] (Visit 1 (pre-1st dose)), the ALT is on record as 37 u/L, the AP is on record as 109 u/L and the AST is 53 u/L. In data set [2] (Visit 2), the ALT was found to be 19 u/L, the AP is 137 u/L and the AST amounted to 36 u/L. In [2] (Visit 3 (last dose)), the ALT is listed as 18 u/L, the AP is listed as 103 u/L and the AST is recorded as 31 u/L. Moreover, the “C-Reactive Protein (CRP) Visit 1 mean” value in data set [3] (setting [11]) was determined as 2.28 mg/L. Also, the “CRP Mean % change vs baseline” value in data set [3] (400 mg po QD, 14 daily doses) was 9.78%. Further, in [3] (setting [10]), the “C-Reactive Protein (CRP) Visit 3 mean” value was found to be 2.22 mg/L. The “effect on CRP” value in data set [3] (14 daily doses) is “did not reduce CRP levels and actually led to an increase in CRP”. Also, in data set [4] (setting [11]), the “Total cholesterol Visit 1 mean” value came out at 198.14 mg/dL. Further, in [4] (400 mg po QD, 14 daily doses), the “Total cholesterol Change mean” value was -33.57 mg/dL and the “Total cholesterol Mean % change” value is −15.46%. Further, the “Total cholesterol Visit 3 mean” value in data set [4] (setting [10]) stood at 164.57 mg/dL. Besides, the “effect on QTc interval” value in data set [5] is recorded as “does not increase”. In data set [6] (setting [11]), the “LDL cholesterol Visit 1 mean” value is 118.71 mg/dL. For the same compound, in [6] (400 mg po QD, 14 daily doses), the “LDL cholesterol Mean % change” value is listed as −24.73% and the “LDL cholesterol change mean” value is -30.43 mg/dL. Moreover, in data set [6] (setting [10]), the “LDL cholesterol Visit 3 mean” value is given as 88.29 mg/dL. For the same compound, in data set [7], the “effect on blood pressure readings” value was “no reductions”. Further, the “Fructosamine Visit 1 mean” value in data set [8] (setting [11]) was found to be 272.57 µmol/L. For the same compound, the “Fructosamine Change vs Baseline mean” value in data set [8] (400 mg po QD, 14 daily doses) was -2.29 µmol/L. The “Fructosamine Visit 3 mean” value in [8] (setting [10]) stood at 270.29 µmol/L.

Turning to `CC(=O)N1CCN(c2ccc(OC[C@H]3CO[C@](Cn4ccnc4)(c4ccc(Cl)cc4Cl)O3)cc2)CC1` (single isomer, unassigned) [2R,4S ketoconazole enantiomer, reference compound], in data set [9], the clearance stood at 24.03 mL/min/kg and the terminal half life worked out at 55.8 min.
